Test results taken from patent US5952382A, “Adamantyl-substituted retinoids and pharmaceutical/cosmetic compositions comprised thereof” (Centre International De Recherches Dermatologiques Galderma, priority 1995, dated 1999).
pIC50: −log10 of the molar value. Like-named read-outs stand apart in the source and are kept apart here.

How the values were obtained:
[1] = system: embryonic teratocarcinoma F9 cells; conditions: prior art; cited from earlier work
[2] = system: embryonic teratocarcinoma F9 cells; experiment: Test of differentiation of embryonic teratocarcinoma F9 cells, antagonism of an agonist retinoid (secretion of the activator of plasminogen, morphology); format: cell-based, mice; conditions: inhibition by 50% of effect of agonist compound A (10 nM) on secretion of the activator of plasminogen, 3 days incubation, read-out: Antagonist against compound A (10 nM) Test of differentiation of F9 cells IC50

For `CC1=C(/C=C/C(C)=C/C=C/C(C)=C/C(=O)O)C(C)(C)CCC1` [retinoic acid], the “induction of differentiation of embryonic teratocarcinoma cells (F9) in mice” value [1] is given as “capable of inducing differentiation”.
“4-[7-(1-adamantyl)-6-carbonylpentyloxy-2-naphthyl]benzoic acid [Example 20]” gave a pIC50 [2] of 7.00.
Work on `COCCOCOc1cc2ccc(-c3ccc(C(=O)O)cc3)cc2cc1C12CC3CC(CC(C3)C1)C2` [Example 3, 4-[7-(1-adamantyl)-6-methoxyethoxymethoxy-2-naphthyl]benzoic acid] yielded a pIC50 ([2]; Mus musculus, F9, 72 h) of 8.70.
`O=C(O)c1ccc(-c2ccc3cc(OCCCCCCCCO)c(C45CC6CC(CC(C6)C4)C5)cc3c2)cc1` [Example 14, 4-[7-(1-adamantyl)-6-hydroxyoctyloxy-2-naphthyl]benzoic acid] gave a pIC50 ([2]; Mus musculus, F9, 72 h) of 6.60.
Work on `O=C(O)c1ccc(-c2ccc3cc(OCc4ccccc4)c(C45CC6CC(CC(C6)C4)C5)cc3c2)cc1` [Example 5, 4-[7-(1-adamantyl)-6-benzyloxy-2-naphthyl]benzoic acid] yielded a pIC50 ([2]; Mus musculus, F9, 72 h) of 6.74.
`COCCCCCCOc1cc2ccc(-c3ccc(C(=O)O)cc3)cc2cc1C12CC3CC(CC(C3)C1)C2` [Example 39, 4-[7-(1-adamantyl)-6-methoxyhexyloxy-2-naphthyl]benzoic acid] gave a pIC50 ([2]; Mus musculus, F9, 72 h) of 6.35.
`O=C(O)c1ccc(-c2ccc3cc(OCc4ccccc4)c(C45CC6CC(CC(C6)C4)C5)cc3c2)cc1O` [Example 1, 2-hydroxy-4-[7-(1-adamantyl)-6-benzyloxy-2-naphthyl]benzoic acid] gave a pIC50 ([2]; Mus musculus, F9, 72 h) of 8.30.
Work on `O=C(O)c1ccc(-c2ccc3cc(C(=O)OCc4ccccc4)c(C45CC6CC(CC(C6)C4)C5)cc3c2)cc1` [Example 6, 4-[7-(1-adamantyl)-6-benzyloxycarbonyl-2-naphthyl]benzoic acid] yielded a pIC50 ([2]; Mus musculus, F9, 72 h) of 6.30.
